According to patent publication US8575114B2, “SGLT-2 inhibitors, methods of making them, and uses thereof” (Albany Molecular Research, Inc., priority 2010, dated 2013):
pIC50: −log10 of the molar value.

Assays:
hSGLT-2 = hSGLT-2 (Homo sapiens (Human), UniProt P31639); test: [14C]AMG uptake inhibition in CHO-K1/hSGLT-2 cells; format: cell-based; conditions: 4 μM [14C]AMG, 3-hr incubation at 37° C., read-out: SGLT2, IC50
Method: The inhibitory activity of the compounds of this invention against the SGLT-1 or SGLT-2 transporters can be determined by the following assay. […] CHO-K1 cells transfected with pcDNA3.1 (Invitrogen Corp., Carlsbad, Calif.) containing either the full-length hSGLT-1 or hSGLT-2 using Lipofectamine 2000 (Invitrogen Corp., Carlsbad, Calif.) were selected for stable incorporation of the construct by resistance to the selective pressure of Geneticin (450 μg/ml; Invitrogen Corp., Carlsbad, Calif.). Monoclonal cell lines isolated by minimal dilution were screened for uptake activity of radiolabled methyl α-D-glucopyranoside ([^14C]AMG), a non-metabolizable glucose analogue, and a single clone for each transporter was selected for maximal transporter activity to be used for evaluating the inhibitory activity of the compounds of this invention. In brief, 35,000 cells (CHO-K1/hSGLT-1 or CHO-K1/hSGLT-2) were plated per well of a black tissue culture treated 96-well plate in Ham's F12 media supplemented with 10% heat inactivated FBS and allowed to attached overnight at 37° C. and 5% CO2. Compounds were serially diluted 3-fold in DMSO generating a nine (9) data point dose response curve for each compound. Two replicates were performed per determination. […] Following a 3-hr incubation at 37° C. and 5% CO2, the uptake reaction was stopped by washing the cells three (3) times with ice-cold D-PBS and then lysing the cells with 50 μl of Microscint-20. […] Data were fit to an empirical four-parameter model to determine the inhibitor concentration at half-maximal response (IC50). The assay window was established by control wells incubated with [^14C]AMG in the presence or absence of sodium. A dose response curve for phlorizin was generated on every plate as a positive control.

hSGLT-1 = hSGLT-1 (Homo sapiens (Human), UniProt P13866); test: [14C]AMG uptake inhibition in CHO-K1/hSGLT-1 cells; format: cell-based; conditions: 4 μM [14C]AMG, 3-hr incubation at 37° C., read-out: SGLT-1, IC50
hSGLT-1, sequence (P13866 whole entry): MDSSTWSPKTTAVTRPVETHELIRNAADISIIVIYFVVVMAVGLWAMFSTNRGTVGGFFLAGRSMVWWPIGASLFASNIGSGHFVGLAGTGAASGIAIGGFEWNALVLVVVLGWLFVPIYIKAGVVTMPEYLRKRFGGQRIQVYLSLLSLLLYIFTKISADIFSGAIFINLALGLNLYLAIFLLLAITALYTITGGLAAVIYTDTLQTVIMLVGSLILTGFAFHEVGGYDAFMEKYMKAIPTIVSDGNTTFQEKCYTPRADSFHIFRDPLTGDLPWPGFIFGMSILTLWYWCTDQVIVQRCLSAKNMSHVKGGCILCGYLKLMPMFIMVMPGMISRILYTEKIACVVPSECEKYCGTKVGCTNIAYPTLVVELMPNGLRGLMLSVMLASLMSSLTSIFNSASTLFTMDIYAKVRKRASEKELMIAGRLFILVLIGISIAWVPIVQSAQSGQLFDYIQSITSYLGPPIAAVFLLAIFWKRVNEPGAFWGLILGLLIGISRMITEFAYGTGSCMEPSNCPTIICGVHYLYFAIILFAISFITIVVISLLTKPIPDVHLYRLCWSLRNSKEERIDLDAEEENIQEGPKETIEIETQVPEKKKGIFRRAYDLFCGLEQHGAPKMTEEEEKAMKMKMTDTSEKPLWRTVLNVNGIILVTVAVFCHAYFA
Text: The inhibitory activity of the compounds of this invention against the SGLT-1 or SGLT-2 transporters can be determined by the following assay. The cDNAs for the human genes of SGLT-1 (SLC5A1—solute carrier family 5 sodium/glucose cotransporter member 1; Accession #NM_000343.1) or SGLT-2 (SLC5A2—member 2; Accession #NM_003041.2) were synthesized (OriGene Technologies, Inc.) and sub-cloned into the mammalian expression vector, pcDNA3.1 (Invitrogen Corp., Carlsbad, Calif.) using standard molecular biology techniques. CHO-K1 cells transfected with pcDNA3.1 (Invitrogen Corp., Carlsbad, Calif.) containing either the full-length hSGLT-1 or hSGLT-2 using Lipofectamine 2000 (Invitrogen Corp., Carlsbad, Calif.) were selected for stable incorporation of the construct by resistance to the selective pressure of Geneticin (450 μg/ml; Invitrogen Corp., Carlsbad, Calif.). Monoclonal cell lines isolated by minimal dilution were screened for uptake activity of radiolabled methyl α-D-glucopyranoside ([^14C]AMG), a non-metabolizable glucose analogue, and a single clone for each transporter was selected for maximal transporter activity to be used for evaluating the inhibitory activity of the compounds of this invention. In brief, 35,000 cells (CHO-K1/hSGLT-1 or CHO-K1/hSGLT-2) were plated per well of a black tissue culture treated 96-well plate in Ham's F12 media supplemented with 10% heat inactivated FBS and allowed to attached overnight at 37° C. and 5% CO2. Compounds were serially diluted 3-fold in DMSO generating a nine (9) data point dose response curve for each compound. Two replicates were performed per determination. The compounds were then diluted into Uptake Buffer (10 mM Hepes, 5 mM Tris, 137 mM NaCl, 5.4 mM KCl, 2.8 mM CaCl2, and 1.2 mM MgSO4, pH 7.4) with a final DMSO concentration of 0.9% (v/v). After the overnight incubation and prior to compound treatment, the cells were washed twice with Sodium Free Buffer in which the sodium chloride was replaced with 137 mM Choline Chloride, and then incubated with 4 μM [^14C]AMG in Uptake Buffer in the presence or absence of diluted compound. Following a 3-hr incubation at 37° C. and 5% CO2, the uptake reaction was stopped by washing the cells three (3) times with ice-cold D-PBS and then lysing the cells with 50 μl of Microscint-20. After 15-min, the amount of radioactivity that was incorporated into the cells was quantified using a Microbeta reader. Data were fit to an empirical four-parameter model to determine the inhibitor concentration at half-maximal response (IC50). The assay window was established by control wells incubated with [^14C]AMG in the presence or absence of sodium. A dose response curve for phlorizin was generated on every plate as a positive control.

hSGLT-2, sequence (P31639 whole entry): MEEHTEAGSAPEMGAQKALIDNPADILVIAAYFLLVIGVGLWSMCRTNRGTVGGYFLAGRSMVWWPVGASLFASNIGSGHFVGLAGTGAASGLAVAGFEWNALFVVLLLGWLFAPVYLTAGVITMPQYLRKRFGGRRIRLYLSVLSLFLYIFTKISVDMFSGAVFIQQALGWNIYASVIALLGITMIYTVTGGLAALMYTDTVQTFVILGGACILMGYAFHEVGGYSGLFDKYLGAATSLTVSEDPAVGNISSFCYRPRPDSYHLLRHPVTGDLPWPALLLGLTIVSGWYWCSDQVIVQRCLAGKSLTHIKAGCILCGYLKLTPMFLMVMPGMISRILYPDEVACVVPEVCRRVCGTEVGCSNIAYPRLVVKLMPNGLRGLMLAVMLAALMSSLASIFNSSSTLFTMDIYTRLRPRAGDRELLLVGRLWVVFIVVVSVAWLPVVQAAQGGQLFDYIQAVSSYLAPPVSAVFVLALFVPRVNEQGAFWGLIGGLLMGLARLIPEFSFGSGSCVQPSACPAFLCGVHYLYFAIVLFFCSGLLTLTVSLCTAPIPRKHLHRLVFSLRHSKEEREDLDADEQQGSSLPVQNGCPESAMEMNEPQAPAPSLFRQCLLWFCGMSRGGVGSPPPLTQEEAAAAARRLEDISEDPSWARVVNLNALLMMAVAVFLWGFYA

SMILES | pIC50 (hSGLT-2) | pIC50 (hSGLT-1)
O=c1n(Cc2cc([C@@H]3O[C@H](CO)[C@@H](O)[C@H](O)[C@H]3O)ccc2Cl)nc2ccccn12 [I-1, 2-(2-chloro-5-((2S,3R,4R,5S,6R)-3,4,5-trihydroxy-6-(hydroxymethyl)tetrahydro-2H-pyran-2-yl)benzyl)-[1,2,4]triazolo[4,3-a]pyridin-3(2H)-one] | 7.08 | 4.62
Cc1ccc2nn(Cc3cc([C@@H]4O[C@H](CO)[C@@H](O)[C@H](O)[C@H]4O)ccc3Cl)c(=O)n2c1 [I-2, 2-(2-chloro-5-((2S,3R,4R,5S,6R)-3,4,5-trihydroxy-6-(hydroxymethyl)tetrahydro-2H-pyran-2-yl)benzyl)-6-methyl-[1,2,4]triazolo[4,3-a]pyridin-3(2H)-one] | 6.89 | 4.17
O=c1n(Cc2cc([C@@H]3O[C@H](CO)[C@@H](O)[C@H](O)[C@H]3O)ccc2Cl)nc2cc(C(F)(F)F)ccn12 [I-3, 2-(2-chloro-5-((2S,3R,4R,5S,6R)-3,4,5-trihydroxy-6-(hydroxymethyl)tetrahydro-2H-pyran-2-yl)benzyl)-7-(trifluoromethyl)-[1,2,4]triazolo[4,3-a]pyridin-3(2H)-one] | 6.56 | 4.31
O=c1n(Cc2cc([C@@H]3O[C@H](CO)[C@@H](O)[C@H](O)[C@H]3O)ccc2Cl)nc2ccc(C(F)(F)F)cn12 [I-5, 2-(2-chloro-5-((2S,3R,4R,5S,6R)-3,4,5-trihydroxy-6-(hydroxymethyl)tetrahydro-2H-pyran-2-yl)benzyl)-6-(trifluoromethyl)-[1,2,4]triazolo[4,3-a]pyridin-3(2H)-one] | 6.00 | < 4.05
O=c1n(Cc2cc([C@@H]3O[C@H](CO)[C@@H](O)[C@H](O)[C@H]3O)ccc2Cl)nc2ccc(CO)cn12 [I-6, 2-(2-chloro-5-((2S,3R,4R,5S,6R)-3,4,5-trihydroxy-6-(hydroxymethyl)tetrahydro-2H-pyran-2-yl)benzyl)-6-(hydroxymethyl)-[1,2,4]triazolo[4,3-a]pyridin-3(2H)-one] | 6.84 | < 4.05
OC[C@H]1O[C@@H](c2ccc(Cl)c(Cn3nc4ccccn4c3=S)c2)[C@H](O)[C@@H](O)[C@@H]1O [I-7, 2-(2-chloro-5-((2S,3R,4R,5S,6R)-3,4,5-trihydroxy-6-(hydroxymethyl)tetrahydro-2H-pyran-2-yl)benzyl)-[1,2,4]triazolo[4,3-a]pyridine-3(2H)-thione] | 6.50 | < 4.14
O=c1n(Cc2cc([C@@H]3O[C@H](CO)[C@@H](O)[C@H](O)[C@H]3O)ccc2Cl)nc2ccc(Cl)cn12 [I-8, 6-chloro-2-(2-chloro-5-((2S,3R,4R,5S,6R)-3,4,5-trihydroxy-6-(hydroxymethyl)tetrahydro-2H-pyran-2-yl)benzyl)-[1,2,4]triazolo[4,3-a]pyridin-3(2H)-one] | 7.09 | 4.21
Cc1ccn2c(=O)n(Cc3cc([C@@H]4O[C@H](CO)[C@@H](O)[C@H](O)[C@H]4O)ccc3Cl)nc2c1 [I-9, 2-(2-chloro-5-((2S,3R,4R,5S,6R)-3,4,5-trihydroxy-6-(hydroxymethyl)tetrahydro-2H-pyran-2-yl)benzyl)-7-methyl-[1,2,4]triazolo[4,3-a]pyridin-3(2H)-one] | 6.96 | 
O=c1n(Cc2cc([C@@H]3O[C@H](CO)[C@@H](O)[C@H](O)[C@H]3O)ccc2Cl)nc2ccc(Br)cn12 [I-10, 6-bromo-2-(2-chloro-5-((2S,3R,4R,5S,6R)-3,4,5-trihydroxy-6-(hydroxymethyl)tetrahydro-2H-pyran-2-yl)benzyl)-[1,2,4]triazolo[4,3-a]pyridin-3(2H)-one] | 7.02 | 4.34
O=c1n(Cc2cc([C@@H]3O[C@H](CO)[C@@H](O)[C@H](O)[C@H]3O)ccc2Cl)nc2ccc(F)cn12 [I-11, 2-(2-chloro-5-((2S,3R,4R,5S,6R)-3,4,5-trihydroxy-6-(hydroxymethyl)tetrahydro-2H-pyran-2-yl)benzyl)-6-fluoro-[1,2,4]triazolo[4,3-a]pyridin-3(2H)-one] | 6.65 | 
Cc1cc2nn(Cc3cc([C@@H]4O[C@H](CO)[C@@H](O)[C@H](O)[C@H]4O)ccc3Cl)c(=O)n2cc1Cl [I-12, 6-chloro-2-(2-chloro-5-((2S,3R,4R,5S,6R)-3,4,5-trihydroxy-6-(hydroxymethyl)tetrahydro-2H-pyran-2-yl)benzyl)-7-methyl-[1,2,4]triazolo[4,3-a]pyridin-3(2H)-one] | 7.44 | < 4.05
O=c1n(Cc2cc([C@@H]3O[C@H](CO)[C@@H](O)[C@H](O)[C@H]3O)ccc2Cl)nc2cc(CO)ccn12 [I-14, 2-(2-chloro-5-((2S,3R,4R,5S,6R)-3,4,5-trihydroxy-6-(hydroxymethyl)tetrahydro-2H-pyran-2-yl)benzyl)-7-(hydroxymethyl)-[1,2,4]triazolo[4,3-a]pyridin-3(2H)-one] | 6.77 | < 4.05
O=c1n(Cc2cc([C@@H]3O[C@H](CO)[C@@H](O)[C@H](O)[C@H]3O)ccc2Cl)nc2ccc(CCO)cn12 [I-15, 2-(2-chloro-5-((2S,3R,4R,5S,6R)-3,4,5-trihydroxy-6-(hydroxymethyl)tetrahydro-2H-pyran-2-yl)benzyl)-6-(2-hydroxyethyl)-[1,2,4]triazolo[4,3-a]pyridin-3(2H)-one] | 6.33 | < 4.05
OC[C@H]1O[C@@H](c2ccc(Cl)c(Cc3ccc4ncnn4c3)c2)[C@H](O)[C@@H](O)[C@@H]1O [II-1, (2S,3R,4R,5S,6R)-2-(3-([1,2,4]triazolo[1,5-a]pyridin-6-ylmethyl)-4-chlorophenyl)-6-(hydroxymethyl)tetrahydro-2H-pyran-3,4,5-triol] | 6.65 | < 4.05
O=c1c2ccoc2ccn1Cc1cc([C@@H]2O[C@H](CO)[C@@H](O)[C@H](O)[C@H]2O)ccc1Cl [II-2, 5-(2-chloro-5-((2S,3R,4R,5S,6R)-3,4,5-trihydroxy-6-(hydroxymethyl)tetrahydro-2H-pyran-2-yl)benzyl)furo[3,2-c]pyridin-4(5H)-one] | 6.27 | 4.15
O=C1CN(c2ccc(Cc3cc([C@@H]4O[C@H](CO)[C@@H](O)[C@H](O)[C@H]4O)ccc3Cl)cc2)C(=O)N1C(c1ccccc1)(c1ccccc1)c1ccccc1 [III-1, 1-(4-(2-chloro-5-((2S,3R,4R,5S,6R)-3,4,5-trihydroxy-6-(hydroxymethyl)tetrahydro-2H-pyran-2-yl)benzyl)phenyl)-3-tritylimidazolidine-2,4-dione] | 6.48 | 5.20
CCN1C(=O)CN(c2ccc(Cc3cc([C@@H]4O[C@H](CO)[C@@H](O)[C@H](O)[C@H]4O)ccc3Cl)cc2)C1=O [III-2, 1-(4-(2-chloro-5-((2S,3R,4R,5S,6R)-3,4,5-trihydroxy-6-(hydroxymethyl)tetrahydro-2H-pyran-2-yl)benzyl)phenyl)-3-ethylimidazolidine-2,4-dione] | 7.94 | 4.76
CN1CC(=O)N(c2ccc(Cc3cc([C@@H]4O[C@H](CO)[C@@H](O)[C@H](O)[C@H]4O)ccc3Cl)cc2)C1=O [III-3, 3-(4-(2-chloro-5-((2S,3R,4R,5S,6R)-3,4,5-trihydroxy-6-(hydroxymethyl)tetrahydro-2H-pyran-2-yl)benzyl)phenyl)-1-methylimidazolidine-2,4-dione] | 6.83 | 7.08
